Laboratory results from patent EP3087981A1, “HYGROPHORON B12 FOR USE IN THE TREATMENT OF A MYCOSIS” (Leibniz-Institut für Pflanzenbiochemie (IPB), priority 2015, dated 2016).
≈ marks a conversion by molar mass, not a printed value.

System: Malassezia pachydermatis Isolat CBS 1879
Assay: Dilution assay in 96-well microtiter plates, minimal inhibitory concentration (MHK)
Assay type: cell-based
Conditions: CBS1879, RPMI 1640 Medium, 2 bis 4 Tage bei 37 °C, visual evaluation, read-out: minimale Hemmkonzentration (MHK)
Text: Einer besonders bevorzugten Ausführungsform der Erfindung entsprechend wird Hygrophoron B^12 oder dessen Enantiomer, Epimere oder Diastereomere zur Verwendung bei der Behandlung einer Mykose eingesetzt, die durch Malassezia pachydermatis ausgelöst wird. Die Evaluierung der biologischen Eigenschaften des erfindungsgemäß verwendeten Hygrophorons B^12 ergab, dass Hygrophoron B^12 stark antimykotische Eigenschaften aufweist. Insbesondere weist Hygrophoron B^12 starke Aktivität gegen Malassezia pachydermatis auf. Figur 1 zeigt eine überraschend starke in vitro Aktivität des erfindungsgemäß verwendeten Hygrophorons B^12 gegen Malassezia pachydermatis, wobei die Aktivität mit dem Arzneistoff Terbinafin vergleichbar ist. Terbinafin ist ein synthetisches Antimykotikum und seit vielen Jahren das meist verordnete Präparat. In Figur 1 bezeichnet MHK die minimale HemmKonzentration (MHK). Sie ist die niedrigste Konzentration einer Substanz, bei der die Vermehrung von Mikroorganismen mit bloßem Auge nicht wahrgenommen werden kann. Die MHK wird mit einem sogenannten Titerverfahren bestimmt. Dabei wird die Konzentration von einem Wirkstoff (hier Terbinafin und Hygrophoron B^12) bestimmt, der das Wachstum von Malassezia pachydermatis gerade noch hemmt. Die MHK wird in Mikrogramm pro Milliliter (µg/ml) angegeben. […]

**Q.** How did the MIC turn out when `CCCCCCCCCCCC[C@@H](O)[C@@]1(O)C(=O)C=C[C@@H]1O` [Hygrophoron B^12, (+)-cis-4,5-Dihydroxy-5-(1-hydroxytridecyl)cyclopent-2-enon] was run?
**A.** 0.17 µg/mL (≈ 0.544 µM)
